Read-outs that look alike come from different tables or passages of the source.
Key:
α-glucosidase [1] = target: T1, α-glucosidase (Saccharomyces cerevisiae, UniProt P53341); assay: biochemical; type: biochemical; conditions: for activity against α-glucosidase (in words): SAR discussion / conclusion, compared with acarbose; for IC50: yeast form of α-glucosidase, mean ± S.E. of at least three different experiments
Protocol: The newly synthesized benzo[d]imidazole-amide-1,2,3-triazole-N-arylacetamide hybrids 8a–n were evaluated against yeast form of α-glucosidase.

α-glucosidase [2] = target: T1, α-glucosidase; assay: Kinetic study of α-glucosidase inhibition (Lineweaver–Burk plots); type: biochemical, yeast
Protocol: Therefore, values of Vmax remained constant while the values of Km increased. […] Besides, the Ki value was 40.0 µM that was obtained by the secondary plot of Lineweaver–Burk plots (Fig. 2b).
Figure 2 Inhibitory kinetics of compound 8c on α-glucosidase. (a) Lineweaver–Burk plots for inhibition of compound 8c. (b) The secondary plot of Lineweaver–Burk plots for determination Ki value of compound 8c.
In vitro anti-α-glucosidase inhibition and kinetic study of the new compounds 8a–n were performed exactly according to our pervious reported works.

[3] = In vitro cytotoxicity by MTT method, HDF; conditions: human, HDF normal human cells
[4] = system: normal human cell line (HDF); assay: In vitro cytotoxicity by MTT method, HDF; conditions: normal cell line HDF
[5] = In vitro cytotoxicity by MTT method, MCF-7; conditions: human, MCF-7 breast cancer cells
[6] = system: breast cancer cell line (MCF-7); assay: In vitro cytotoxicity by MTT method, MCF-7; conditions: cancer cell line MCF-7
[7] = read-out: IC50 (α-glucosidase inhibitory activity)
[8] = IC50 (α-glucosidase inhibitory activity)

T1 sequence (P53341 whole entry): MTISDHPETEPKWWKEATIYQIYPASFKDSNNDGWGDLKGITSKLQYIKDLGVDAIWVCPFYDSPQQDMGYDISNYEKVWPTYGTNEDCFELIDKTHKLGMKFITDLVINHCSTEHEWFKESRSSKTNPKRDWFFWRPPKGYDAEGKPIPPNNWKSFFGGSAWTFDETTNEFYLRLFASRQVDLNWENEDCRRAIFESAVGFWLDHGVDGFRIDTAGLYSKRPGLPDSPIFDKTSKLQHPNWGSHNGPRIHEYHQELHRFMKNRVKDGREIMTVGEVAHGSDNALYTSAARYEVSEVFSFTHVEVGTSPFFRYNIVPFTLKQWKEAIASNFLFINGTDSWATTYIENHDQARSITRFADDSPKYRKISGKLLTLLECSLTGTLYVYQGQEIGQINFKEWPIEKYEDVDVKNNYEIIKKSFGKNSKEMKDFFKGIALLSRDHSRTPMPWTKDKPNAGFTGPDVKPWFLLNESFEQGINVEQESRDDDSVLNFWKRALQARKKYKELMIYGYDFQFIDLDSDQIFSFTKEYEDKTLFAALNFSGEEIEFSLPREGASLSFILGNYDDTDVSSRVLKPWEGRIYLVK

IC50 (α-glucosidase [1]; [7]) [µM]	SMILES	IC50 (α-glucosidase [1]; [8]) [µM]	melting point [°C]	also measured
	Cc1ccccc1NC(=O)Cn1cc(CNC(=O)c2nc3ccccc3[nH]2)nn1 [8b, N-((1-(2-oxo-2-(o-tolylamino)ethyl)-1H-1,2,3-triazol-4-yl)methyl)-1H-benzo[d]imidazole-2-carboxamide]	> 750		activity against α-glucosidase (in words) (α-glucosidase [1]): have not activity
	Cc1cccc(NC(=O)Cn2cc(CNC(=O)c3nc4ccccc4[nH]3)nn2)c1 [8c, N-((1-(2-oxo-2-(m-tolylamino)ethyl)-1H-1,2,3-triazol-4-yl)methyl)-1H-benzo[d]imidazole-2-carboxamide]	49 ± 0.4	206 to 208	fold more potent than positive control (acarbose) (α-glucosidase [1]; ratio of IC50 values vs acarbose): 15.3 fold; inhibition mechanism against α-glucosidase (α-glucosidase [2]; Lineweaver–Burk plot, Vmax constant, Km increased): competitive inhibitor; Ki (α-glucosidase [2]; secondary plot of Lineweaver–Burk plots): 40 µM; IC50 [3]: > 200 µM; cytotoxic activity (in words) [4]: did not show cytotoxic activity; IC50 [5]: > 200 µM; cytotoxic activity (in words) [6]: did not show cytotoxic activity
	Cc1ccc(NC(=O)Cn2cc(CNC(=O)c3nc4ccccc4[nH]3)nn2)cc1 [8d, N-((1-(2-oxo-2-(p-tolylamino)ethyl)-1H-1,2,3-triazol-4-yl)methyl)-1H-benzo[d]imidazole-2-carboxamide]	> 750	209 to 211	activity against α-glucosidase (in words) (α-glucosidase [1]): have not activity
422.6 ± 1.1	Cc1ccc(NC(=O)Cn2cc(CNC(=O)c3nc4ccccc4[nH]3)nn2)c(C)c1 [8f, N-((1-(2-((2,4-dimethylphenyl)amino)-2-oxoethyl)-1H-1,2,3-triazol-4-yl)methyl)-1H-benzo[d]imidazole-2-carboxamide]		226 to 228	
125.6 ± 0.3	Cc1cccc(C)c1NC(=O)Cn1cc(CNC(=O)c2nc3ccccc3[nH]2)nn1 [8g, N-((1-(2-((2,6-dimethylphenyl)amino)-2-oxoethyl)-1H-1,2,3-triazol-4-yl)methyl)-1H-benzo[d]imidazole-2-carboxamide]		222 to 224	IC50 [3]: > 200 µM; cytotoxic activity (in words) [4]: did not show cytotoxic activity; IC50 [5]: > 200 µM; cytotoxic activity (in words) [6]: did not show cytotoxic activity
251.9 ± 1.6	CCc1ccc(NC(=O)Cn2cc(CNC(=O)c3nc4ccccc4[nH]3)nn2)cc1 [8h, N-((1-(2-((4-ethylphenyl)amino)-2-oxoethyl)-1H-1,2,3-triazol-4-yl)methyl)-1H-benzo[d]imidazole-2-carboxamide]		213 to 215	
	COc1ccc(NC(=O)Cn2cc(CNC(=O)c3nc4ccccc4[nH]3)nn2)cc1 [8i, N-((1-(2-((4-methoxyphenyl)amino)-2-oxoethyl)-1H-1,2,3-triazol-4-yl)methyl)-1H-benzo[d]imidazole-2-carboxamide]	> 750	235 to 237	
	O=C(Cn1cc(CNC(=O)c2nc3ccccc3[nH]2)nn1)Nc1ccc(F)cc1 [8j, N-((1-(2-((4-fluorophenyl)amino)-2-oxoethyl)-1H-1,2,3-triazol-4-yl)methyl)-1H-benzo[d]imidazole-2-carboxamide]	> 750	245 to 247	
	O=C(Cn1cc(CNC(=O)c2nc3ccccc3[nH]2)nn1)Nc1ccc(Cl)cc1 [8k, N-((1-(2-((4-chlorophenyl)amino)-2-oxoethyl)-1H-1,2,3-triazol-4-yl)methyl)-1H-benzo[d]imidazole-2-carboxamide]	134.2 ± 0.9	236 to 238	
668.5 ± 1.4	O=C(Cn1cc(CNC(=O)c2nc3ccccc3[nH]2)nn1)Nc1ccc(Cl)cc1Cl [8l, N-((1-(2-((2,4-dichlorophenyl)amino)-2-oxoethyl)-1H-1,2,3-triazol-4-yl)methyl)-1H-benzo[d]imidazole-2-carboxamide]		247 to 249	
	O=C(Cn1cc(CNC(=O)c2nc3ccccc3[nH]2)nn1)Nc1ccc(Br)cc1 [8m, N-((1-(2-((4-bromophenyl)amino)-2-oxoethyl)-1H-1,2,3-triazol-4-yl)methyl)-1H-benzo[d]imidazole-2-carboxamide]	183.6 ± 0.8	227 to 229	
> 750	O=C(Cn1cc(CNC(=O)c2nc3ccccc3[nH]2)nn1)Nc1ccc([N+](=O)[O-])cc1 [8n, N-((1-(2-((4-nitrophenyl)amino)-2-oxoethyl)-1H-1,2,3-triazol-4-yl)methyl)-1H-benzo[d]imidazole-2-carboxamide]		259 to 261	

SMILES	IC50 (α-glucosidase [1]; [7]) [µM]	IC50 (α-glucosidase [1]; [8]) [µM]	melting point [°C]	also measured
O=C(Cn1cc(CNC(=O)c2nc3ccccc3[nH]2)nn1)Nc1ccccc1 [8a, N-((1-(2-oxo-2-(phenylamino)ethyl)-1H-1,2,3-triazol-4-yl)methyl)-1H-benzo[d]imidazole-2-carboxamide]	> 750			activity against α-glucosidase (in words) (α-glucosidase [1]): have not activity
Cc1cccc(NC(=O)Cn2cc(CNC(=O)c3nc4ccccc4[nH]3)nn2)c1C [8e, N-((1-(2-((2,3-dimethylphenyl)amino)-2-oxoethyl)-1H-1,2,3-triazol-4-yl)methyl)-1H-benzo[d]imidazole-2-carboxamide]	119.2 ± 0.8		216 to 218	inhibitory activity diminished (fold) relative to 8c (α-glucosidase [1]; addition of a 2-methyl group to 3-methyl derivative 8c): around 2.5 fold; IC50 [3]: > 200 µM; cytotoxic activity (in words) [4]: did not show cytotoxic activity; IC50 [5]: > 200 µM; cytotoxic activity (in words) [6]: did not show cytotoxic activity

Source: paper PMC10390517, “Design, synthesis, in vitro, and in silico evaluations of benzo[d]imidazole-amide-1,2,3-triazole-N-arylacetamide hybrids as new antidiabetic agents targeting α-glucosidase” (Scientific Reports, 2023)
